Here are results for 26 compounds from patent US10577378B2, “EIF4A-inhibiting compounds and methods related thereto” (eFFECTOR Therapeutics, Inc., priority 2015, dated 2020).

The assay has as its system MDA-MB-231 human breast cancer cells. The assay can be described thus: Cell proliferation assay (CellTiter-Glo, 72 hours treatment). The assay is classed as cell-based. Particulars: Homo sapiens; MDA-MB-231 cells, 72 hours at 37° C., CellTiter-Glo; read-out: MDA-MB-231 cell proliferation assay (IC50). The essentials: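 MDA-MB-231 cells seeded at 2,500 cells/well, treated next day with compound or DMSO vehicle for 72 h at 37 °C. Proliferation read by CellTiter-Glo; IC50 from sigmoidal non-linear regression, binned as +++ (<100 nM), ++ (100–1000 nM), + (>1000 nM).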
For orientation: ATP-based viability assays read luminescence as a measure of living cells.

With `COc1cncc2c1[C@]1(O)[C@H](O)[C@H](CN(C)C)[C@@H](c3ccccc3)[C@]1(c1ccc(C(F)F)cc1)O2` (single isomer, unassigned) [106F], the IC50 was 100 to 1000 nM.
Regarding `COc1nc(Cl)cc2c1[C@]1(O)[C@@H](CN(C)C)[C@H](CO)[C@@H](c3ccccc3)[C@]1(c1ccc(Br)cc1)O2` (racemic) [209F, Rac-(5aR,6S,7R,8R,8aR)-5a-(4-bromophenyl)-3-chloro-8-((dimethylamino)methyl)-7-(hydroxymethyl)-1-methoxy-6-phenyl-5a,6,7,8-tetrahydro-8aH-cyclopenta[4,5]furo[3,2-c]pyridin-8a-ol], the IC50 was less than 100 nM.
For `COc1cncc2c1[C@]1(O)[C@@H](CN3CCOCC3)[C@H](CO)[C@@H](c3ccccc3)[C@]1(c1ccc(C#N)cc1)O2` (racemic) [180F, Rac-4-((4bR,5R,6R,7S,7aR)-4b-hydroxy-6-(hydroxymethyl)-4-methoxy-5-(morpholino-methyl)-7-phenyl-4b,5,6,7-tetrahydro-7aH-cyclopenta[4,5]furo[2,3-c]pyridin-7a-yl)benzonitrile] the value was less than 100 nM; for `CN(C)C(=O)[C@@H]1[C@@H](c2ccccc2)[C@]2(c3ccc(C#N)cc3)Oc3cc(Cl)cnc3[C@]2(O)[C@@]1(C)O` (racemic) [33Fb, Rac-(5aR,6S,7R,8S,8aS)-3-chloro-5a-(4-cyanophenyl)-8,8a-dihydroxy-N,N,8-trimethyl-6-phenyl-5a,7,8,8a-tetrahydro-6H-cyclopenta[4,5]furo[3,2-b]pyridine-7-carboxamide], greater than 1000 nM; for `COc1nc(C#N)cc2c1[C@]1(O)[C@H](O)[C@H](CN)[C@@H](c3ccccc3)[C@]1(c1ccc(C#N)cc1)O2` (racemic) [293F, Rac-(5aR,6S,7S,8R,8aS)-7-(aminomethyl)-5a-(4-cyanophenyl)-8,8a-dihydroxy-1-methoxy-6-phenyl-5a,7,8,8a-tetrahydro-6H-cyclopenta[4,5]furo[3,2-c]pyridine-3-carbonitrile], less than 100 nM.
With `COc1cncc2c1[C@]1(O)[C@](O)(CN3CCOCC3)C[C@@H](c3ccccc3)[C@]1(c1ccc(C#N)cc1)O2` (racemic) [287F, Rac-4-((4bS,5R,7S,7aR)-4b,5-dihydroxy-4-methoxy-5-(morpholinomethyl)-7-phenyl-4b,5,6,7-tetrahydro-7aH-cyclopenta[4,5]furo[2,3-c]pyridin-7a-yl)benzonitrile], the IC50 was greater than 1000 nM.
For the compound `COC(=O)C1(F)[C@@H](O)[C@@]2(O)c3ncc(Cl)cc3O[C@@]2(c2ccc(Br)cc2)[C@@H]1c1ccccc1` (mixture of isomers) [58F, Rac-methyl (5aR,6S,8S,8aS)-5a-(4-bromophenyl)-3-chloro-7-fluoro-8,8a-dihydroxy-6-phenyl-5a,7,8,8a-tetrahydro-6H-cyclopenta[4,5]furo[3,2-b]pyridine-7-carboxylate], the IC50 was greater than 1000 nM.
As to `COc1cncc2c1[C@]1(O)[C@H](O)[C@H](C(=O)N3[C@@H]4COC[C@H]3C4)[C@@H](c3ccccc3)[C@]1(c1ccc(Br)cc1)O2` (racemic) [266F, Rac-((1R,5S)-3-oxa-6-azabicyclo[3.1.1]heptan-6-yl)((4bS,5R,6R,7S,7aR)-7a-(4-bromophenyl)-4b,5-dihydroxy-4-methoxy-7-phenyl-4b,6,7,7a-tetrahydro-5H-cyclopenta[4,5]furo[2,3-c]pyridin-6-yl)methanone], the IC50 is less than 100 nM.
For `COc1cncc2c1[C@]1(O)[C@H](O)[C@H](CNCC(F)(F)F)[C@@H](c3ccccc3)[C@]1(c1ccc(C#N)cc1)O2` [291F, 4-((4bS,5R,6S,7S,7aR)-4b,5-dihydroxy-4-methoxy-7-phenyl-6-(((2,2,2-trifluoroethyl)amino)methyl)-4b,5,6,7-tetrahydro-7aH-cyclopenta[4,5]furo[2,3-c]pyridin-7a-yl)benzonitrile] the value was 100 to 1000 nM; for `COc1cncc2c1[C@]1(O)[C@H](O)[C@H](N)[C@@H](c3ccccc3)[C@]1(c1ccc(C(F)F)cc1)O2` (racemic) [270F, Rac-(4bS,5R,6R,7R,7aR)-6-amino-7a-(4-(difluoromethyl)phenyl)-4-methoxy-7-phenyl-5,6,7,7a-tetrahydro-4bH-cyclopenta[4,5]furo[2,3-c]pyridine-4b,5-diol], 100 to 1000 nM.
For `COc1cncc2c1[C@]1(O)[C@H](O)[C@H](CN(C)Cc3ccccc3)[C@@H](c3ccccc3)[C@]1(c1ccc(C#N)cc1)O2` (racemic) [76F, Rac-4-((4bS,5R,6S,7S,7aR)-6-((benzyl(methyl)amino)methyl)-4b,5-dihydroxy-4-methoxy-7-phenyl-4b,5,6,7-tetrahydro-7aH-cyclopenta[4,5]furo[2,3-c]pyridin-7a-yl)benzonitrile] the value was less than 100 nM; for `N#Cc1ccc([C@@]23Oc4cc(Cl)cnc4[C@]2(O)[C@@H](CN2CCOCC2)C[C@H]3c2ccccc2)cc1` (racemic) [178F, Rac-4-((5aR,6S,8R,8aR)-3-chloro-8a-hydroxy-8-(morpholinomethyl)-6-phenyl-6,7,8,8a-tetrahydro-5aH-cyclopenta[4,5]furo[3,2-b]pyridin-5a-yl)benzonitrile], less than 100 nM; for `COc1nc(C#N)cc2c1[C@]1(O)[C@H](O)[C@H](CN(C)CC(F)F)[C@@H](c3ccccc3)[C@]1(c1ccc(C#N)cc1)O2` (racemic) [208Fa, Rac-(5aR,6S,7S,8R,8aS)-5a-(4-cyanophenyl)-7-(((2,2-difluoroethyl)(methyl)amino)methyl)-8,8a-dihydroxy-1-methoxy-6-phenyl-5a,7,8,8a-tetrahydro-6H-cyclopenta[4,5]furo[3,2-c]pyridine-3-carbonitrile], 100 to 1000 nM.
As to `N#Cc1ccc([C@@]23Oc4cc(Cl)cnc4[C@]2(O)[C@@H](O)C[C@H]3c2ccccc2)cc1` (racemic) [131F, Rac-4-((5aR,6S,8S,8aS)-3-chloro-8,8a-dihydroxy-6-phenyl-6,7,8,8a-tetrahydro-5aH-cyclopenta[4,5]furo[3,2-b]pyridin-5a-yl)benzonitrile], the IC50 was greater than 1000 nM.
For `COCCN(C)C(=O)[C@H]1[C@@H](O)[C@@]2(O)c3c(OC)cncc3O[C@@]2(c2ccc(Br)cc2)[C@@H]1c1ccccc1` (racemic) [260F, rac-(4bS,5R,6R,7S,7aR)-7a-(4-bromophenyl)-4b,5-dihydroxy-4-methoxy-N-(2-methoxyethyl)-N-methyl-7-phenyl-4b,6,7,7a-tetrahydro-5H-cyclopenta[4,5]furo[2,3-c]pyridine-6-carboxamide] the value was less than 100 nM.
For `COc1nc(Cl)cc2c1[C@]1(O)[C@H](O)[C@H](CN3CCN(C)CC3)[C@@H](c3ccccc3)[C@]1(c1ccc(C#N)cc1)O2` (single isomer, unassigned) [198Fa] the value was less than 100 nM.
For the compound `COc1nc(Cl)cc2c1[C@]1(O)[C@H](O)[C@H](CN3CCC34CC4(F)F)[C@@H](c3ccccc3)[C@]1(c1ccc(Br)cc1)O2` (mixture of isomers) [220F, Rac-(5aR,6S,7S,8R,8aS)-5a-(4-bromophenyl)-3-chloro-7-((1,1-difluoro-4-azaspiro[2.3]hexan-4-yl)methyl)-1-methoxy-6-phenyl-5a,6,7,8-tetrahydro-8aH-cyclopenta[4,5]furo[3,2-c]pyridine-8,8a-diol], the IC50 is less than 100 nM.
For `COc1cncc2c1[C@]1(O)[C@@H](CO)C[C@@H](c3ccccc3)[C@]1(c1ccc(C#N)cc1)O2` (single isomer, unassigned) [120F] the value was less than 100 nM; for `COc1cncc2c1[C@]1(O)[C@H](O)[C@H](CN(C)C)[C@@H](c3ccccc3)[C@]1(c1ccc(C)cc1)O2` (single isomer, unassigned) [256F], less than 100 nM.
For `CCN(CC)C[C@H]1[C@@H](O)[C@@]2(O)c3c(cc(Cl)nc3OC)O[C@@]2(c2ccc(C#N)cc2)[C@@H]1c1ccccc1` (racemic) [159Fb, Rac-4-((5aR,6S,7S,8R,8aS)-3-chloro-7-((diethylamino)methyl)-8,8a-dihydroxy-1-methoxy-6-phenyl-6,7,8,8a-tetrahydro-5aH-cyclopenta[4,5]furo[3,2-c]pyridin-5a-yl)benzonitrile] the value was less than 100 nM; for `COc1cncc2c1[C@]1(O)[C@H](O)[C@H](S(C)(=O)=O)[C@@H](c3ccccc3)[C@]1(c1ccc(C#N)cc1)O2` (single isomer, unassigned) [102F], 100 to 1000 nM.
As to `COc1cncc2c1[C@]1(O)[C@@H](CNC3COC3)[C@H](CO)[C@@H](c3ccccc3)[C@]1(c1ccc(Br)cc1)O2` (racemic) [185F, Rac-(4bR,5R,6R,7S,7aR)-7a-(4-bromophenyl)-6-(hydroxymethyl)-4-methoxy-5-((oxetan-3-ylamino)methyl)-7-phenyl-5,6,7,7a-tetrahydro-4bH-cyclopenta[4,5]furo[2,3-c]pyridin-4b-ol], the IC50 is less than 100 nM.
`O[C@]12c3ncc(Cl)cc3O[C@@]1(c1ccc(Br)cc1)[C@H](c1ccccc1)C[C@@]21CCO1` (racemic) [38F, Rac-(5aR,6S,8R,8aS)-5a-(4-bromophenyl)-3-chloro-6-phenyl-6,7-dihydrospiro[cyclopenta[4,5]furo[3,2-b]pyridine-8,2′-oxetan]-8a(5aH)-ol]: the IC50 was greater than 1000 nM.
Consider `CNC(=O)[C@H]1[C@@H](O)[C@@]2(O)c3ncc(Cl)cc3O[C@@]2(c2ccc(C#N)cc2)[C@@H]1c1ccccc1` (single isomer, unassigned) [20F], for which the IC50 is less than 100 nM.
For `CN(C)C(=O)[C@H]1[C@@H](O)[C@@]2(O)c3ccc(C#N)cc3S[C@@]2(c2ccc(C#N)cc2)[C@@H]1c1ccccc1` (racemic) [13F, Rac-(1R,2R,3S,3aR,8bS)-6-cyano-3a-(4-cyanophenyl)-1,8b-dihydroxy-N,N-dimethyl-3-phenyl-2,3,3a,8b-tetrahydro-1H-benzo[b]cyclopenta[d]thiophene-2-carboxamide] the value was greater than 1000 nM; for `COc1cncc2c1[C@]1(O)[C@H](O)[C@H](CN3[C@@H]4CC[C@H]3COC4)[C@@H](c3ccccc3)[C@]1(c1ccc(C#N)cc1)O2` (single isomer, unassigned) [265F], 100 to 1000 nM.
